{"source": "patent US20160039897A1", "about": "“COMPOUNDS AND METHODS FOR TREATING OBESITY AND CONTROLLING WEIGHT” (THE UNIVERSITY OF NORTH CAROLINA AT CHAPEL HILL, priority 2013, published 2016)", "molecules": {"B1": {"name": "native IGFBP-2: native (wild type) insulin-like growth factor binding protein-2; FIG. 2 legend says wild type bovine IGFBP-2 (protein, UniProt P13384 34-317, looked up)", "Insulin-like growth …": "EVLFRCPPCTPESLAACKPPPGAAAGPAGDARVPCELVREPGCGCCSVCARLEGERCGVYTPRCGQGLRCYPNPGSELPLRALVHGEGTCEKHGDAEYSASPEQVADNGEEHSEGGLVENHVDGNVNLMGGGGGAGRKPLKSGMKELAVFREKVTEQHRQMGKGGKHHLGLEEPKKLRPPPARTPCQQELDQVLERISTMRLPDERGPLEHLYSLHIPNCDKHGLYNLKQCKMSLNGQRGECWCVNPNTGKLIQGAPTIRGDPECHLFYNEQQGARGVHTQRMQ"}}, "key": {"[1]": {"test_system": "primary preadipocytes from IGFBP-2−/− mice", "test": "Differentiation of primary preadipocytes (immunoblot of adiponectin, aP2, PPARγ; Oil Red O staining)", "assay_type": "cell-based, mouse", "conditions": "for effect on differentiation marker expression / preadipocyte differentiation (in words): peptides 6 μg/ml, IGFBP-2 proteins 3 μg/ml, IGF-I 100 ng/ml, in differentiation medium; for % suppression of adiponectin: mean±SE, N=3; for relative potency as inhibitor of adipogenesis / preadipocyte differentiation (in words): comparison between peptides and proteins, immunoblot and Oil Red O", "experimental": "Primary preadipocytes were isolated from epididymal fat pads of 6 week old IGFBP-2^−/− mice. The cells were cultured using a previously described method (Boney, C M et al., 1994). The fat pads were weighed and the tissue was digested with an equal volume (W/V) of collagenase type A (Roche Applied Science, Indianapolis, Ind.) in HEPES buffer (0.1M and 1.5% BSA) for 45 min at 37° C. Following complete digestion, the preadipocytes were separated from the stromal vascular cells by centrifugation at 500×g for 5 min. The pelleted cells were washed with DMEM containing 30 mM glucose (Gibco, Grand Island, N.Y.) and passed through a 100 μm mesh filter (BD Biosciences, Bedford, Mass.). The cells were then plated in 6-well plates (Falcon Corp., Franklin Lakes, N.J.) at a density of 1.2-1.5×10^4 cells/ml in DMEM containing 30 mM glucose supplemented with penicillin (100 U/ml), streptomycin (100 μg/ml), and 10% fetal bovine serum hereafter referred to as standard medium. The cultures had the medium changed every 2 days until they reached confluency. Two day post-confluent cells were then exposed to differentiation medium (serum free DMEM containing 0.5 mM IBMX, 1 μM dexamethasone, and 5 μg/mL insulin) and incubated for 2 days. Experimental treatments that were added to this medium included either wild type IGFBP-2 (3 μg/ml), HBD1 peptide (6 μg/ml), HBD1 control peptide (6 μg/ml), HBD2 peptide (6 μg/ml), HBD2 control peptide (6 μg/ml), HBD1 mutant IGFBP-2 (3 μg/ml) or the HBD2 mutant IGFBP-2 (3 μg/ml). Cultures were maintained for two additional days in the standard medium supplemented with 5 μg/ml insulin. Thereafter, the cultures were kept in the fresh standard medium without insulin for additional two days.\nAfter treatment, the cells were rinsed with PBS for two times and fixed with 10% formalin for 30 min at room temperature. After rinsing with distilled water for twice, 100% propylene glycol (Poly Scientific, Bay Shore, N.Y.) was added and incubated for 5 min. Before adding Oil Red O solution (Poly Scientific, Bay Shore, N.Y.), propylene glycol was removed. The cultures were incubated for 10 min at 60° C. Removing Oil Red O solution, the cultures were incubated with 80% propylene glycol for 5 min, After incubation, the cultures were rinsed with tap water twice. Images were captured using an Olympus IX81 inverted microscope.\nDifferentiated adipocytes were lysed in ice-cold lysis buffer (Xi et al., 2008). After centrifugation at 14,000×g for 10 min, solubilized proteins were quantified by the Bradford method (Thermo Scientific, Rockford, Ill.). Equal protein amounts of lysates were loaded onto a SDS-polyacrylamide gel and the proteins were separated, then transferred to an Immobilon filter and visualized by immunoblotting using the appropriate antibody. The primary antibody dilutions that were used were 1:1000 for the anti-adiponectin antibody (Affinity BioReagents, Golden, Colo.), 1:500 for the anti-PPARγ antibody (Cell Signaling Technology Inc., Beverly, Mass.), 1:2000 for the anti-apt antibody (ProSci Inc., Poway, Calif.) and 1:5000 for the anti-β-actin antibody (Sigma Chemical Company, St. Louis, Mo.). The immune complexes were visualized using enhanced chemiluminescence (Thermo Fischer Scientific, Rockford, Ill.).\nPreadipocytes were prepared from mice and grown in culture as described herein. The respective mouse and human peptides were added to cells and the cells were lysed and the lysates were run on SDS gels as described. Immunoblotting for adiponectin was carried as described. Three concentrations of each peptide, 0.7, 2.0 and 6.0 μg/ml, were compared. The results were expressed as % suppression mean±SE(N=3) and were as follows.\nCell culture of primary preadipocytes. Preadipocytes were isolated from epididymal fat pads of IGFBP-2^−/− mice. The cultures had the medium changed every 2 days until they reached confluency. […]"}, "IGFBP-2−/− mice [2]": {"test_system": "IGFBP-2−/− mice", "test": "Body composition (fat and lean mass) by EchoMRI at weeks 0 and 12", "assay_type": "in vivo, mouse", "conditions": "weeks 0 to 12; pegylated peptide 50 μg IP 3 times/week; mean±SE", "experimental": "(§1) Body fat and lean muscle mass was measured at weeks 0 and 12 of treatment by magnetic resonance imaging analysis (EchoMRI-100, Echo Medical Systems, Houston, Tex.), a technique that measures fat mass and lean mass in unanesthetized animals (Kelly S A, et. al., 2010). After completion of 12 weeks of treatment, the mice were sacrificed. Blood was collected by cardiac puncture and allowed to sit for 4 hours before centrifuging at 3500 rpm×15 min. The serum was aspirated and stored at −20° C. until analysis. Abdominal inguinal and visceral fat pads were carefully dissected from each animal according to defined anatomical landmarks. All subcutaneous fat between the lower part of the rib cage and the upper thigh was considered abdominal subcutaneous inguinal fat, whereas all fat found along the mesentery starting at the lesser curvature of the stomach and ending at the sigmoid colon was considered visceral fat. Fat depots were blotted dry prior to weighing. The right inguinal fat pad was dissected separately and the triglyceride content of this tissue was determined by a colorimetric analysis (Pointe Scientific, Canton, Mich.), as previously described (Dann H, Kimura S 1992). Serum adiponectin and leptin were measured by ELISA following manufacturer's instructions (Millipore, Billerica, Mass.).\n(§2) Body composition and serum adipokine measurement. Body fat and lean mass were measured at weeks 0 and 12 of treatment by magnetic resonance imaging analysis (EchoMRI-100, Echo Medical Systems, Houston, Tex.), using unanesthetized animals. After 12 weeks of treatment, the mice were sacrificed and blood was collected by cardiac puncture and centrifuged at 3500 rpm×15 min. The serum was stored at −20° C. Abdominal inguinal and visceral fat pads were dissected from each animal according to defined anatomical landmarks. Subcutaneous fat between the rib cage and the upper thigh was termed subcutaneous inguinal fat, whereas all fat from the lesser curvature of the stomach to the sigmoid colon was termed visceral fat. Fat depots were blotted dry prior to weighing. The right inguinal fat pad was dissected separately and the triglyceride content of this tissue was determined by a calorimetric analysis (Pointe Scientific, Canton, Mich. Serum adiponectin and leptin were measured by ELISA following manufacturer's instructions (Millipore, Billerica, Mass.)."}, "IGFBP-2−/− mice [3]": {"test_system": "IGFBP-2−/− mice", "test": "Inguinal and visceral fat pad, liver and heart weights at sacrifice", "assay_type": "in vivo, mouse", "conditions": "after 12 weeks; pegylated peptide 50 μg IP 3 times/week; mean±SE", "experimental": "as §1, §2"}, "[4]": {"test_system": "ovariectomized C57B6 normal mice (IGFBP-2 +/+)", "test": "Body composition MRI analysis in ovariectomized genetically normal mice", "assay_type": "in vivo, mouse", "conditions": "for Fat / Body weight: 2.5 mg/kg", "experimental": "Experiments were conducted in which the HBD-2 peptide was administered to genetically normal, ovariectomized mice to determine if it would induce fat loss. The purpose of this experiment was to determine if the peptide could alter fat mass in ovariectomized mice. Estrogen deficient mice are known to gain fat mass following removal of the ovaries. Since the peptide had not been tested in an animal model that had not been genetically manipulated and since it had not been tested in a condition wherein fat mass had been acquired previously to determine if it could reduce pre-existing fat mass this experiment was undertaken. The experimental design was as follows.\n(§3) There were 8 mice in each treatment group. C57B6 normal mice underwent ovaryectomy at age 8 weeks. They were then maintained on a normal Chow diet (6% fat) for three weeks. At that time they were treated with 2.5 mg/kg of the active peptide injected subcutaneously two days per week for four weeks. The peptide is the pegylated HBD-2 peptide described herein,\n(§4) A second treatment group that had also undergone ovariectomy was treated with the identical concentration of a control peptide that contained the same amino acids but in a scrambled order. A third group underwent sham surgery wherein an incision was made and then closed and the ovaries were not removed. For comparison the response of mice that had had the IGF BP-2 gene deleted were treated in the same manner.\n(§5) Eight mice underwent and were treated with the active peptide for four weeks as described for the normal animals. Eight additional mice received the control peptide and eight mice received the sham procedure. The animals were weighed weekly. After 4 weeks they underwent MRI analysis to determine body composition. Both lean mass and fat mass were quantified and the percent fat as a percent total body weight was determined mathematically."}, "[5]": {"test_system": "ovariectomized IGFBP-2 −/− mice", "test": "Body composition MRI analysis in ovariectomized IGFBP-2 knockout mice", "assay_type": "in vivo, mouse", "conditions": "IGFBP-2 −/− OVX mice, 2.5 mg/kg sc two days per week for four weeks; for Fat: 2.5 mg/kg", "experimental": "as §3, §4, §5"}, "[6]": {"conditions": "IGFBP-2 +/+ OVX mice, 2.5 mg/kg sc two days per week for four weeks, MRI"}}, "note": "Entries after “also recorded” stand apart in the source; their conditions may differ. No end group written: not given here. mPEG‑maleimide = methoxy-PEG maleimide (couples to the cysteine thiol)", "data": [{"molecule": "CKPLRLSKEEHPLK [HBD1 control peptide, scrambled HBD1 peptide, reference compound]", "values": [{"measurement": "effect on differentiation marker expression / preadipocyte differentiation (in words)", "setting": "[1]", "value": "had no effect"}]}, {"molecule": "IGF-I: insulin-like growth factor-I added at 100 ng/ml to differentiation medium [reference compound]", "values": [{"measurement": "effect on differentiation marker expression / preadipocyte differentiation (in words)", "setting": "[1]", "value": "no additional effect on cell differentiation"}]}, {"molecule": "KHGRYNLKQCKMSLNGQR [Mouse, mouse IGFBP-2 HBD2 peptide]", "values": [{"measurement": "% suppression of adiponectin", "setting": "[1]; 0.7 μg/ml peptide", "value": "51.2 ± 8.1", "unit": "%"}, {"measurement": "% suppression of adiponectin", "setting": "[1]; 2.0 μg/ml peptide", "value": "85.6 ± 11.4", "unit": "%"}, {"measurement": "% suppression of adiponectin", "setting": "[1]; 6.0 μg/ml peptide", "value": "95.5 ± 9.9", "unit": "%"}, {"measurement": "relative potency as inhibitor of adipogenesis / preadipocyte differentiation (in words)", "setting": "[1]", "value": "equipotent"}]}, {"molecule": "Peg HBD2: HBD2 peptide with added cysteine (CKHGLYNLKQCKMSLNGQR), pegylated with methoxy PEG maleimide (C(mPEG‑maleimide)KHGLYNLKQCKMSLNGQR)", "values": [{"measurement": "Fat mass increase", "setting": "IGFBP-2−/− mice [2]", "value": "0.58 ± 0.12", "unit": "g"}, {"measurement": "Lean mass increase", "setting": "IGFBP-2−/− mice [2]", "value": "3.10 ± 0.57", "unit": "g"}, {"measurement": "Inguinal fat", "setting": "IGFBP-2−/− mice [3]", "value": "0.23 ± 0.02", "unit": "g"}, {"measurement": "Visceral fat", "setting": "IGFBP-2−/− mice [3]", "value": "0.25 ± 0.02", "unit": "g"}, {"measurement": "Fat %", "setting": "[4]; [6]", "value": "19.42 ± 1.1", "unit": "%"}, {"measurement": "Lean", "setting": "[4]; [6]", "value": "17.40 ± 0.3", "unit": "g"}, {"measurement": "Total", "setting": "[4]; [6]", "value": "21.65 ± 0.6", "unit": "g"}, {"measurement": "Fat", "setting": "[4]; IGFBP-2 +/+ OVX mice, 2.5 mg/kg sc two days per week for four weeks, MRI, listed as HBD", "value": "4.0 ± 0.4", "unit": "g"}, {"measurement": "Fat", "setting": "[4]; IGFBP-2 +/+ OVX mice, 2.5 mg/kg sc two days per week for four weeks, MRI, listed as active peptide", "value": 4.0, "unit": "g"}, {"measurement": "Body weight", "setting": "[4]; IGFBP-2 +/+ OVX mice, 2.5 mg/kg sc two days per week for four weeks, listed as HBD", "value": "23.0 ± 0.8", "unit": "g"}, {"measurement": "Body weight", "setting": "[4]; IGFBP-2 +/+ OVX mice, 2.5 mg/kg sc two days per week for four weeks, listed as active peptide", "value": 23.0, "unit": "g"}, {"measurement": "body weight and total fat mass (in words)", "setting": "[4]; OVX mice, after four weeks of treatment", "value": "significantly decreased"}, {"measurement": "Body weight", "setting": "[5]", "value": "21.95 ± 0.8", "unit": "g"}, {"measurement": "Fat %", "setting": "[5]; MRI", "value": "18.75 ± 1.0", "unit": "%"}, {"measurement": "Lean", "setting": "[5]; MRI", "value": "16.97 ± 0.4", "unit": "g"}, {"measurement": "Total", "setting": "[5]; MRI", "value": "20.90 ± 0.8", "unit": "g"}, {"measurement": "Fat", "setting": "[5]; MRI", "value": 3.85, "unit": "g"}, {"measurement": "Fat", "setting": "[5]; MRI, listed as HBD(pept)", "value": "3.85 ± 0.4", "unit": "g"}]}, {"molecule": "RKGFYKRKQCKPSRGRKR [HBD2 control peptide, reference compound]", "values": [{"measurement": "effect on differentiation marker expression / preadipocyte differentiation (in words)", "setting": "[1]", "value": "did not affect their expression; also recorded: did not alter their expression"}]}, {"molecule": "B1", "values": [{"measurement": "relative potency as inhibitor of adipogenesis / preadipocyte differentiation (in words)", "setting": "[1]", "value": "most potent inhibitors of adipogenesis"}, {"measurement": "effect on differentiation marker expression / preadipocyte differentiation (in words)", "setting": "[1]", "value": "inhibited preadipocyte differentiation into mature adipocytes"}]}]}
